Test results published in patent publication US20260132132A1, “3A,4,5,6-TETRAHYDRO-1 H-PYRAZOLO[3,4-C]PYRIDIN-7(7AH)-ONE DERIVATIVES AS FACTOR XIIA INHIBITORS” (KALVISTA PHARMACEUTICALS LIMITED, priority 2022, published 2026).

Tests used:
[1] = target: Thrombin (Homo sapiens, UniProt P00734); assay: Related protease inhibition: Thrombin, fluorogenic substrate; type: biochemical; details: fluorogenic substrate at Km, 25° C., H1-H3 = % activity at 40 μM; for activity at 40 µM: read-out: IC50 (human thrombin) nM
Description: (§1) Human serine protease enzyme Plasma Kallikrein, KLK1, FXa, Plasmin, Thrombin and Trypsin were assayed for enzymatic activity using an appropriate fluorogenic substrate at Km concentration, FXIa at fixed substrate concentration of 100 μM and various concentrations of the test compound.

[2] = target: FXa (Homo sapiens, UniProt P00742); assay: Related protease inhibition: FXa, fluorogenic substrate; type: biochemical; details: fluorogenic substrate at Km, 25° C., H1-H3 = % activity at 40 μM; for activity at 40 µM: read-out: IC50 (human FXa) nM
Description: as §1

[3] = target: T1, Human Factor XIIa (hFXIIa) (Homo sapiens, UniProt P00748); assay: Determination of Human Factor XIIa (hFXIIa) inhibition, fluorogenic substrate IC50 assay; type: biochemical; details: fluorogenic substrate H-DPro-Phe-Arg-AFC at Km, 25° C., read-out: Human FXIIa IC50
T1 construct: purchased Enzyme Research Laboratories
T1 sequence (P00748 373-615 limits assumed): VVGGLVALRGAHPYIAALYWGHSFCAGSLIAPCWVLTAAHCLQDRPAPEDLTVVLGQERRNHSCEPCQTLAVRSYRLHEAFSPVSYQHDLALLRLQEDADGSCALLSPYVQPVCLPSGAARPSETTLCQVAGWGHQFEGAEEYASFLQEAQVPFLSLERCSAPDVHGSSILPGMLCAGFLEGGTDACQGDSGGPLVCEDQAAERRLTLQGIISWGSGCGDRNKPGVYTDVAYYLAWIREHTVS
T1 sequence (P00748 20-372 partner limits assumed): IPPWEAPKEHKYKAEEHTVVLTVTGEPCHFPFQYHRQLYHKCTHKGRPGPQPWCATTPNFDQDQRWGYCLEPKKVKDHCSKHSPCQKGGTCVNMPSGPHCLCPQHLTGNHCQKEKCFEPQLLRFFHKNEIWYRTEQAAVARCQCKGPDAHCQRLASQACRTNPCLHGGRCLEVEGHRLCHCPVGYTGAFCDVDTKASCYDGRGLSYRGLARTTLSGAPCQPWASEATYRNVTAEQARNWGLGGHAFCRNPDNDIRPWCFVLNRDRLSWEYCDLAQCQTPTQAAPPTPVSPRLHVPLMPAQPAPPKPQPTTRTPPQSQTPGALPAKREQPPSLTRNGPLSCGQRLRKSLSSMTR
Description: Determination of Human Factor XIIa (hFXIIa) inhibition
The Km for the cleavage of the substrate by hFXIIa was determined by standard transformation of the Michaelis-Menten equation, with subsequent inhibition assays performed at substrate Km concentration.

[4] = Pharmacokinetics following a single intravenous dose and a single oral dose in rats; type: in vivo; details: rat, male Sprague-Dawley rats, single iv dose (nominal 1 mg/kg) and single oral dose (nominal 5 mg/kg) in 10% DMSO/10% Cremophor EL/80% SWFI, plasma by LCMS, Phoenix WinNonlin
Description: Pharmacokinetic studies of the compounds in Table 10 were performed to assess the pharmacokinetics following a single intravenous dose and a single oral dose in male Sprague-Dawley rats. Two rats were given a single intravenous dose of 1 ml/kg of a nominal 1 mg/ml (1 mg/kg) composition of test compound in 10% DMSO/10% Cremophor EL/80% SWFI vehicle. Two rats were given a single oral dose of 5 mL/kg of a nominal 1 mg/ml (5 mg/kg) composition of test compound in 10% DMSO/10% Cremophor EL/80% SWFI vehicle.
Following intravenous dosing, blood samples were collected over a period of 12 h. Sample times were 2, 5, 15 and 30 min then 1, 2, 4, 6, and 12 h. Following oral dosing, blood samples were collected over a period of 24 h. Sample times were 5, 15 and 30 min then 1, 2, 4, 6, 8, 12 and 24 h.
Following collection, blood samples were centrifuged and the plasma fraction analysed for concentration of test compound by LCMS. Oral bioavailability and half-life calculations from these studies were obtained using Phoenix WinNonlin (v8.0) and are shown below: […]

Chain of FXa (P00742 235-488 limits assumed): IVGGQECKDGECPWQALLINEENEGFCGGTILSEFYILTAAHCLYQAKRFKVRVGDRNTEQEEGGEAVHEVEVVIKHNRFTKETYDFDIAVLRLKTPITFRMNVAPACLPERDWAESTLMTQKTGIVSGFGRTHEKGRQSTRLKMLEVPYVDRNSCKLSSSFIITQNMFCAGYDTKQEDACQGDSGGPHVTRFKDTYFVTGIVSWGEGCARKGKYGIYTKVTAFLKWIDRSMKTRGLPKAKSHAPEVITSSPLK
Chain of FXa (P00742 41-179 partner limits assumed): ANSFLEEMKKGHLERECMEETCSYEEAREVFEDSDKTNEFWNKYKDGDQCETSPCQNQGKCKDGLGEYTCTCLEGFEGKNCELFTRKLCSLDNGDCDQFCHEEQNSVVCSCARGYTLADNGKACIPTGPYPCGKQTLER

Row | Structure (SMILES) | activity at 40 µM [1] [%] | activity at 40 µM [2] [%] | IC50 [3] [nM] | bioavailability ([4]; read-out: F % (oral bioavailability)) [%] | half-life ([4]; route for T½ not stated) [min] | IC50 [1] [nM] | IC50 [2] [nM]
1 | CN1CCOc2ccc(N3CCc4c(C(=O)NC56CC(O)(C5)C6)nn(-c5cccc(Cl)c5F)c4C3=O)cc2C1=O [Example 2050, 1-(3-chloro-2-fluorophenyl)-N-(3-hydroxybicyclo[1.1.1]pentan-1-yl)-6-(4-methyl-5-oxo-2,3,4,5-tetrahydrobenzo[f][1,4]oxazepin-7-yl)-7-oxo-4,5,6,7-tetrahydro-1H-pyrazolo[3,4-c]pyridine-3-carboxamide] | 20 to 80 | 20 to 80 | 10 to 100 |  |  |  | 
2 | CCNC(=O)c1nn(-c2cccc(Cl)c2)c2c1CCN(c1ccc(OC)c(CN3CCCCC3)c1)C2=O [Example 1419, 1-(3-chlorophenyl)-N-ethyl-6-(4-methoxy-3-(piperidin-1-ylmethyl)phenyl)-7-oxo-4,5,6,7-tetrahydro-1H-pyrazolo[3,4-c]pyridine-3-carboxamide] | 20 to 80 | 20 to 80 | 1000 to 3000 |  |  |  | 
3 | COCc1nn(-c2cc(Cl)cc(CN)c2)c2c1CCN(c1ccc3c(c1)C(=O)N(C)CC3)C2=O [Example 2041, 7-(1-(3-(aminomethyl)-5-chlorophenyl)-3-(methoxymethyl)-7-oxo-1,4,5,7-tetrahydro-6H-pyrazolo[3,4-c]pyridin-6-yl)-2-methyl-3,4-dihydroisoquinolin-1(2H)-one] | 20 to 80 | 20 to 80 | 10 to 100 |  |  |  | 
4 | Cc1cc(CNC(=O)c2nn(-c3cccc(Cl)c3)c3c2CCN(c2ccc4c(c2)C(=O)N(CCO)CC4)C3=O)nn1C [Example 1222, 1-(3-chlorophenyl)-N-((1,5-dimethyl-1H-pyrazol-3-yl)methyl)-6-(2-(2-hydroxyethyl)-1-oxo-1,2,3,4-tetrahydroisoquinolin-7-yl)-7-oxo-4,5,6,7-tetrahydro-1H-pyrazolo[3,4-c]pyridine-3-carboxamide] |  |  | 10 to 100 | 5 | 35 |  | 
5 | CCNC(=O)c1nn(-c2cccc(Cl)c2)c2c1CCN(c1ccc3c(c1)N(C(C)=O)CC31CC1)C2=O [Example 1429, 6-(1′-acetylspiro[cyclopropane-1,3′-indolin]-6′-yl)-1-(3-chlorophenyl)-N-ethyl-7-oxo-4,5,6,7-tetrahydro-1H-pyrazolo[3,4-c]pyridine-3-carboxamide] | 20 to 80 | 20 to 80 | 300 to 1000 |  |  |  | 
6 | CCNC(=O)c1nn(-c2cccc(Cl)c2)c2c1CCN(c1cccc(N3CC4CC4C3)c1)C2=O (stereo not drawn) [Example 1431, 6-(3-(3-azabicyclo[3.1.0]hexan-3-yl)phenyl)-1-(3-chlorophenyl)-N-ethyl-7-oxo-4,5,6,7-tetrahydro-1H-pyrazolo[3,4-c]pyridine-3-carboxamide] | 20 to 80 | < 20 | 10000 to 40000 |  |  |  | 
7 | CN1CCc2ccc(N3CCc4c(C(=O)NCC5CC5)nn(-c5cc(Cl)cc(CN)c5)c4C3=O)cc2C1=O [Example 2018, 1-(3-(aminomethyl)-5-chlorophenyl)-N-(cyclopropylmethyl)-6-(2-methyl-1-oxo-1,2,3,4-tetrahydroisoquinolin-7-yl)-7-oxo-4,5,6,7-tetrahydro-1H-pyrazolo[3,4-c]pyridine-3-carboxamide] |  |  | 10 to 100 |  |  | 10000 to 40000 | > 40000
8 | CN1CCc2ccc(N3CCc4c(C(=O)N[C@@H]5COC[C@H]5O)nn(-c5cccc(Cl)c5)c4C3=O)cc2C1=O [Example 1411, 1-(3-chlorophenyl)-N-((3R,4S)-4-hydroxytetrahydrofuran-3-yl)-6-(2-methyl-1-oxo-1,2,3,4-tetrahydroisoquinolin-7-yl)-7-oxo-4,5,6,7-tetrahydro-1H-pyrazolo[3,4-c]pyridine-3-carboxamide] | > 80 | > 80 | 300 to 1000 |  |  |  | 
9 | CCNC(=O)c1nn(-c2cc(Cl)cc(COC)c2)c2c1CCN(c1ccc3c(c1)C(=O)N(C)CC3)C2=O [Example 2058, 1-(3-chloro-5-(methoxymethyl)phenyl)-N-ethyl-6-(2-methyl-1-oxo-1,2,3,4-tetrahydroisoquinolin-7-yl)-7-oxo-4,5,6,7-tetrahydro-1H-pyrazolo[3,4-c]pyridine-3-carboxamide] |  |  | 3000 to 10000 |  |  | > 40000 | > 40000
10 | CCNC(=O)c1nn(-c2ccc(O)c(Cl)c2)c2c1CCN(c1ccc3c(c1)C(=O)N(C)CC3)C2=O [Example 2054, 1-(3-chloro-4-hydroxyphenyl)-N-ethyl-6-(2-methyl-1-oxo-1,2,3,4-tetrahydroisoquinolin-7-yl)-7-oxo-4,5,6,7-tetrahydro-1H-pyrazolo[3,4-c]pyridine-3-carboxamide] | > 80 | > 80 | 3000 to 10000 |  |  |  | 
11 | CN1CCc2ccc(N3CCc4c(C(=O)NC5CCCC5)nn(-c5cccc(Cl)c5)c4C3=O)cc2C1 [Example 1044, 1-(3-chlorophenyl)-N-cyclopentyl-6-(2-methyl-1,2,3,4-tetrahydroisoquinolin-7-yl)-7-oxo-4,5,6,7-tetrahydro-1H-pyrazolo[3,4-c]pyridine-3-carboxamide] |  |  | 100 to 300 |  |  | > 100000 | 3000 to 10000
12 | CN1CCc2ccc(N3CCc4c(C(=O)N[C@H]5COC[C@@H]5O)nn(-c5cccc(Cl)c5)c4C3=O)cc2C1=O [Example 1415, 1-(3-chlorophenyl)-N-((3S,4R)-4-hydroxytetrahydrofuran-3-yl)-6-(2-methyl-1-oxo-1,2,3,4-tetrahydroisoquinolin-7-yl)-7-oxo-4,5,6,7-tetrahydro-1H-pyrazolo[3,4-c]pyridine-3-carboxamide] | > 80 | > 80 | 100 to 300 |  |  |  | 
13 | CCNC(=O)c1nn(-c2cccc(Cl)c2)c2c1CCN(c1cc(N3C(=O)CC4CC43)ccc1F)C2=O (stereo not drawn) [Example 1433, 1-(3-chlorophenyl)-N-ethyl-6-(2-fluoro-5-(3-oxo-2-azabicyclo[3.1.0]hexan-2-yl)phenyl)-7-oxo-4,5,6,7-tetrahydro-1H-pyrazolo[3,4-c]pyridine-3-carboxamide] | > 80 | 20 to 80 | 300 to 1000 |  |  |  | 
14 | CN1CCc2ccc(N3CCc4cnn(-c5cc(Cl)cc(CN)c5)c4C3=O)cc2C1=O [Example 2047, 7-(1-(3-(aminomethyl)-5-chlorophenyl)-7-oxo-1,4,5,7-tetrahydro-6H-pyrazolo[3,4-c]pyridin-6-yl)-2-methyl-3,4-dihydroisoquinolin-1(2H)-one] | > 80 | > 80 | 10000 to 40000 |  |  |  | 
15 | CCNC(=O)c1nn(-c2cccc(Cl)c2)c2c1CCN(c1cccc(N3C(=O)C[C@H]4CCC[C@H]43)c1)C2=O [Example 1413, 1-(3-chlorophenyl)-N-ethyl-7-oxo-6-(3-((3aR,6aR)-2-oxohexahydrocyclopenta[b]pyrrol-1(2H)-yl)phenyl)-4,5,6,7-tetrahydro-1H-pyrazolo[3,4-c]pyridine-3-carboxamide] | 20 to 80 | > 80 | 10000 to 40000 |  |  |  | 
16 | CN1CCOc2ccc(N3CCc4c(C(=O)N[C@H](CO)C5CC5)nn(-c5cccc(Cl)c5F)c4C3=O)cc2C1=O [Example 2053, (S)-1-(3-chloro-2-fluorophenyl)-N-(1-cyclopropyl-2-hydroxyethyl)-6-(4-methyl-5-oxo-2,3,4,5-tetrahydrobenzo[f][1,4]oxazepin-7-yl)-7-oxo-4,5,6,7-tetrahydro-1H-pyrazolo[3,4-c]pyridine-3-carboxamide] | > 80 | 20 to 80 | 10 to 100 |  |  |  | 
